From PubChem BioAssay (NCI)
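Method: 48-hour compound exposure of cells in 96-well plates, five concentrations, linear interpolation of endpoints. The concentration for full growth arrest is given as TGI.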

What was measured:
Experiment in all cases: NCI anticancer screen, dose series, 48 h
[1] = tested on: UACC-257 melanoma
[2] = tested on: UACC-62 melanoma
[3] = tested on: NCI-H23 lung
[4] = tested on: HT29 colon
[5] = tested on: HCT-15 colon
[6] = tested on: CAKI-1 renal
[7] = tested on: HOP-62 NSCLC
[8] = tested on: DU-145 prostate
[9] = tested on: 786-0 renal
[10] = tested on: SK-MEL-2 melanoma
[11] = tested on: NCI-H226 lung

Structure (SMILES)	TGI [1] [µM]	TGI [2] [µM]	TGI [3] [µM]	TGI [4] [µM]	TGI [5] [µM]	TGI [6] [µM]	TGI [7] [µM]	TGI [8] [µM]	TGI [9] [µM]	TGI [10] [µM]	TGI [11] [µM]
Cc1c(Cc2ccccc2)n(C(C)OCCN(OC(=O)Oc2ccccc2)C(=O)Oc2ccccc2)c(=O)[nH]c1=O (stereo not given)	30.2	30.5	31	32.1	28.3	33.9	36.7	85.1	34.3	37.2	
Cc1ccc(/C=C/C(=O)Oc2ccc(/C=C3\CCC/C(=C\c4ccc(OC(=O)/C=C/c5ccc(C)cc5)cc4)C3=O)cc2)cc1	> 100	> 100	> 100	> 100	> 100	> 100	> 100	> 100	81	> 100	
COc1ccc(-n2c(SC(CN3CCOCC3)CN3CCCC3=O)nc3ccccc3c2=O)cc1 (stereo not given)	> 100	> 100	> 100	> 100	> 100	> 100		> 100	> 100	> 100	> 100
CSc1cc(Cl)c(C)cc1S(=O)(=O)NC(=O)NNc1ccc(F)cc1				> 100	> 100	> 100	> 100	> 100	> 100	> 100	> 100
C/C(=N\Nc1nc2cc(Cl)ccc2s1)c1ccccn1	> 100	10.1	25.9		> 79.9	46	11.1	> 23.3			> 100
CCCCCCSc1nc(N)nc2nc[nH]c12	> 100	> 100	> 100	> 100	> 100		> 100			> 100	> 85.4
O=C1/C(=C/c2ccc(Cl)cc2)Oc2cc(O)ccc21	90.1	> 100	> 100		> 100		> 100	> 100	> 100		62.3
CN(C)CCNC(=O)c1cccc2ccc(-c3ccc(Br)cc3)nc12	10.7	3.6	13.6	7.24	12.5	7.15	6.09			9.25	4.82
CC(=O)C(=O)NC1/C=C(C)\C=C/C(O)C/C=C(C)\C=C/C(O)CC2OC(=O)C1(C)C(=O)C2C (stereo not given)	> 100	> 100	> 100	> 100	> 100	> 100	> 100			> 100	> 100
Nn1c(Nc2ccc(S(N)(=O)=O)cc2)nnc(/C=C/c2c(O)ccc3ccccc23)c1=O	92.8	49.9	22.4	42.6	30.4	49.6	56.7	91.2	66.8	> 100	
Cn1c(-c2ccc[se]2)ccc1-c1ccc(C=O)[se]1	3.5		48.9	> 100	> 100	0.738	35.3	> 100	> 100	> 100	2.3
CC1(C)OC[C@H](C(=N)OCc2ccccc2)O1	> 100	> 100	> 100	> 100	> 100	> 100	> 100			> 100	> 100
O=c1ccc2ccc(CBr)cc2o1	24	23.1	8.91	6.41	3.45	2.89	30.6	30.8		26.6	23
COc1cc(CC(C)=O)cc(OC)c1	> 100	> 100	> 100	> 100	> 100		> 100	> 100	> 100		> 100
Cc1ccc(S(=O)(=O)N2CCC[C@@H]2C(=O)O[C@@H]2CCC3CC=CC32)cc1 (stereo not given in full)	64.4	> 100	> 100	> 100	> 100		97.2	> 100	55.4		68.3
CN(c1ccccc1)S(=O)(=O)c1ccc([N+](=O)[O-])cc1	> 100		> 100	> 100	> 100	> 100	> 100	> 100	> 100	> 100	> 100
COc1cc(C2c3cc4c(cc3OC(NNC(N)=O)C2C)OCO4)cc(OC)c1OC (stereo not given)	> 100	> 100	> 100	> 100		> 100		> 100	> 100	> 100	3.7
CCN1c2ccccc2NC(=S)c2c1n[nH]c2-c1ccccc1	> 100	> 100	> 100	> 100	87.9	> 100		> 100		60.1	
Clc1cc(-c2ccccc2)nc(Nc2nc3ccccc3[nH]2)n1	44	35.4	56	45.6	22	3.95		> 100	34.2		> 100
COC1OCC(O)C(NC(=O)N(C)N=O)C1O (stereo not given)	> 100	> 100	> 100	> 100	> 100	> 100	> 100			> 100	> 100
COC1/C=C/C=C(/C)Cc2cc(O)c(Cl)c(c2)N(C)C(=O)CC(OC(=O)C(C)C)C2(C)OC2C(C)C2CC1(O)NC(=O)O2 (stereo not given)	> 100	> 100	< 0.01	< 0.01		> 100	> 100			> 43.6	> 100
